Reference: ChEMBL document CHEMBL4007399, “Discovery and Synthesis of a Phosphoramidate Prodrug of a Pyrrolo[2,1-f][triazin-4-amino] Adenine C-Nucleoside (GS-5734) for the Treatment of Ebola and Emerging Viruses” (J Med Chem, 2017)

Columns and labels:
[1] = (§1) Half life in human plasma at 2 uM by LC/MS/MS analysis; assay type: ADME, cell-free
[2] = Cytotoxicity against human MT4 cells assessed as reduction in cell viability after 4 to 5 days by Cell-Titer Glo assay; assay type: cell-based; settings: MT4 cells
Ebolavirus [3] = assay: Antiviral activity against GFP-fused Ebolavirus infected in TERT-immortalized HMVEC assessed as reduction in viral replication preincubated with cells followed by viral infection measured after 3 to 4 days by fluorescence assay; assay type: functional
Ebolavirus [4] = assay: Antiviral activity against Ebolavirus Kikwit infected in human HeLa cells assessed as reduction in viral glycoprotein levels preincubated with cells for 2 hrs followed by viral infection measured after 48 hrs by immunostaining based assay; assay type: functional, cell-based; settings: Orthoebolavirus, Kikwit, HeLa
Ebolavirus [5] = assay: Antiviral activity against Ebolavirus Kikwit infected in human macrophages preincubated with cells for 2 hrs followed by viral infection measured after 48 hrs; assay type: functional; settings: Orthoebolavirus, Kikwit
[6] = Lipophilicity, log D of the compound after 30 mins by HPLC/UV method; assay type: physicochemical
[7] = (§2) Cytotoxicity against human HuH7 cells assessed as reduction in cell viability after 3 days by calcein-AM dye based fluorescence assay; design: species or system Huh-7; settings: Huh-7 cells
[8] = Cytotoxicity against human Hep2 cells assessed as reduction in cell viability after 4 to 5 days by Cell-Titer Glo assay; assay type: cell-based, HEp-2; settings: HEp-2 cells
Hepatitis C virus = assay: Antiviral activity against Hepatitis C virus genotype 1b infected in human HuH7 cells preincubated with cells for 3 days followed by viral infection by luciferase assay; assay type: functional, cell-based, Hepacivirus hominis
Human orthopneumovirus = assay: Antiviral activity against Respiratory syncytial virus A2 infected in human Hep2 cells assessed as reduction of virus-induced cytopathic effect after 4 days by Cell-Titer Glo assay; assay type: functional, cell-based; settings: human respiratory syncytial virus, A2, HEp-2, 96 h
Plasma = assay: as §1; assay type: ADME, cell-free; settings: 2 µM
Huh-7 = assay: as §2; settings: huh-7, 72 h, 72 h
[9] = Hepatitis C virus, genotype 1b, Huh-7

SMILES: CCOC(=O)[C@H](Cc1ccccc1)NP(=O)(OC[C@H]1O[C@@](C#N)(c2ccc3c(N)ncnn23)[C@H](O)[C@@H]1O)Oc1ccccc1 (some centres not stated)
- half-life at 2 µM [1]: 26.4 h
- CC50 [2]: 15 µM
- EC50 (Ebolavirus [3]; Orthoebolavirus, HMVEC): 0.587 µM
- EC50 (Ebolavirus [4]): 4.38 µM
- EC50 (Ebolavirus [5]): 0.27 µM
- logD at 0.5 h [6]: 1.6

SMILES: CCOC(=O)[C@H](C)NP(=O)(OC[C@H]1O[C@@](C#N)(c2ccc3c(N)ncnn23)[C@H](O)[C@@H]1O)Oc1ccccc1 (some centres not stated)
- half-life at 2 µM [1]: 26.4 h
- CC50 [2]: 13 µM
- EC50 (Ebolavirus [3]; Orthoebolavirus, HMVEC): 0.636 µM
- EC50 (Ebolavirus [4]): 2.43 µM
- logD at 0.5 h [6]: 0.6

SMILES: C#C[C@@]1(c2ccc3c(N)ncnn23)O[C@H](CO)[C@@H](O)[C@H]1O
- CC50 [2]: 120 µM
- CC50 at 72 h [7]: > 88 µM
- CC50 [8]: > 200 µM
- EC50 (Hepatitis C virus; [9]): > 88 µM
- EC50 (Human orthopneumovirus): > 200 µM

SMILES: CCC(CC)OC(=O)[C@H](C)NP(=O)(OC[C@H]1O[C@@](C#N)(c2ccc3c(N)ncnn23)[C@H](O)[C@@H]1O)Oc1ccccc1 (some centres not stated)
- half-life at 2 µM [1]: 14.3 h
- CC50 [2]: > 100 µM
- EC50 (Ebolavirus [3]; Orthoebolavirus, HMVEC): 0.845 µM
- EC50 (Ebolavirus [4]): 1.81 µM
- logD at 0.5 h [6]: 1.6

SMILES: CCC(CC)COC(=O)[C@H](C)NP(=O)(OC[C@H]1O[C@@](C#N)(c2ccc3c(N)ncnn23)[C@](C)(O)[C@@H]1O)Oc1ccccc1 (some centres not stated)
- CC50 [2]: 1.4 µM
- CC50 at 72 h [7]: > 44 µM
- CC50 [8]: > 50 µM
- EC50 (Ebolavirus [3]; Orthoebolavirus, HMVEC): 13 µM
- EC50 (Hepatitis C virus; [9]): 0.37 µM
- EC50 (Human orthopneumovirus): > 50 µM
- EC50 (Ebolavirus [4]): 27 µM

SMILES: Nc1ncnn2c([C@@H]3O[C@H](CO)[C@@H](O)[C@H]3O)ccc12
- CC50 [2]: < 0.01 µM
- CC50 at 72 h [7]: 0.15 µM
- CC50 [8]: 0.038 µM
- EC50 (Hepatitis C virus; [9]): 0.0035 µM

SMILES: CCC(CC)COC(=O)[C@H](C)N[P@@](=O)(OC[C@H]1O[C@@](C#N)(c2ccc3c(N)ncnn23)[C@H](O)[C@@H]1O)Oc1ccccc1
- EC50 (Ebolavirus [3]; Orthoebolavirus, HMVEC): 0.053 µM
- EC50 (Ebolavirus [4]): 0.08 µM
- EC50 (Ebolavirus [5]): 0.111 µM
- logD at 0.5 h [6]: 2

SMILES: CCC(CC)COC(=O)[C@H](C)N[P@](=O)(OC[C@H]1O[C@@](C#N)(c2ccc3c(N)ncnn23)[C@H](O)[C@@H]1O)Oc1ccccc1 (mixture of isomers)
- t1/2 (Plasma): 3.25 h
- CC50 [2]: 2 µM
- CC50 (Huh-7): 17 µM
- CC50 [8]: 9.2 µM
- EC50 (Ebolavirus [3]): 0.12 µM
- EC50 (Hepatitis C virus): 0.023 µM
- EC50 (Human orthopneumovirus): 0.027 µM
- EC50 (Ebolavirus [4]): 0.17 µM
- EC50 (Ebolavirus [5]): 0.1 µM
- logD at 0.5 h [6]: 2.1

SMILES: N#C[C@@]1(c2ccc3c(N)ncnn23)O[C@H](CO)[C@@H](O)[C@H]1O [GS-441524]
- CC50 [2]: > 57 µM
- CC50 at 72 h [7]: > 88 µM
- CC50 [8]: > 100 µM
- EC50 (Ebolavirus [3]; Orthoebolavirus, HMVEC): 0.78 µM
- EC50 (Human orthopneumovirus): 0.53 µM
- EC50 (Ebolavirus [4]): > 20 µM
- EC50 (Ebolavirus [5]): > 20 µM
- logD at 0.5 h [6]: 0.3

SMILES: CCC(CC)COC(=O)[C@@H](C)NP(=O)(OC[C@H]1O[C@@](C#N)(c2ccc3c(N)ncnn23)[C@H](O)[C@@H]1O)Oc1ccccc1 (some centres not stated)
- half-life at 2 µM [1]: 26.4 h
- CC50 [2]: 42 µM
- EC50 (Ebolavirus [3]; Orthoebolavirus, HMVEC): 0.518 µM
- EC50 (Ebolavirus [4]): 0.55 µM
- EC50 (Ebolavirus [5]): 0.729 µM
- logD at 0.5 h [6]: 2.1

SMILES: CC(C)OC(=O)[C@H](C)N[P@@](=O)(OC[C@H]1O[C@@](C#N)(c2ccc3c(N)ncnn23)[C@H](O)[C@@H]1O)Oc1ccccc1
- half-life at 2 µM [1]: 26 h
- CC50 [2]: 21 µM
- EC50 (Ebolavirus [3]; Orthoebolavirus, HMVEC): 0.367 µM
- EC50 (Ebolavirus [4]): 1.84 µM
- EC50 (Ebolavirus [5]): 0.297 µM
- logD at 0.5 h [6]: 1.1

SMILES: C[C@H](NP(=O)(OC[C@H]1O[C@@](C#N)(c2ccc3c(N)ncnn23)[C@H](O)[C@@H]1O)Oc1ccccc1)C(=O)OC1CCCC1 (some centres not stated)
- half-life at 2 µM [1]: 26.3 h
- CC50 [2]: 8.8 µM
- EC50 (Ebolavirus [3]; Orthoebolavirus, HMVEC): 0.16 µM
- EC50 (Ebolavirus [4]): 0.633 µM
- EC50 (Ebolavirus [5]): 0.12 µM
- logD at 0.5 h [6]: 1.3

SMILES: C[C@H](NP(=O)(OC[C@H]1O[C@@](C#N)(c2ccc3c(N)ncnn23)[C@H](O)[C@@H]1O)Oc1ccccc1)C(=O)OC1CCC1 (some centres not stated)
- half-life at 2 µM [1]: 13.6 h
- CC50 [2]: 6 µM
- EC50 (Ebolavirus [3]; Orthoebolavirus, HMVEC): 0.088 µM
- EC50 (Ebolavirus [4]): 0.42 µM
- logD at 0.5 h [6]: 1.1
